From ChEMBL document CHEMBL2202953, “Structure-based redesign of an edema toxin inhibitor” (Bioorg Med Chem, 2012)

Key:
[1] = target: T1, Calmodulin-sensitive adenylate cyclase (Bacillus anthracis, UniProt P40136); format: cell-based, RAW264.7
T1 sequence (P40136 whole entry): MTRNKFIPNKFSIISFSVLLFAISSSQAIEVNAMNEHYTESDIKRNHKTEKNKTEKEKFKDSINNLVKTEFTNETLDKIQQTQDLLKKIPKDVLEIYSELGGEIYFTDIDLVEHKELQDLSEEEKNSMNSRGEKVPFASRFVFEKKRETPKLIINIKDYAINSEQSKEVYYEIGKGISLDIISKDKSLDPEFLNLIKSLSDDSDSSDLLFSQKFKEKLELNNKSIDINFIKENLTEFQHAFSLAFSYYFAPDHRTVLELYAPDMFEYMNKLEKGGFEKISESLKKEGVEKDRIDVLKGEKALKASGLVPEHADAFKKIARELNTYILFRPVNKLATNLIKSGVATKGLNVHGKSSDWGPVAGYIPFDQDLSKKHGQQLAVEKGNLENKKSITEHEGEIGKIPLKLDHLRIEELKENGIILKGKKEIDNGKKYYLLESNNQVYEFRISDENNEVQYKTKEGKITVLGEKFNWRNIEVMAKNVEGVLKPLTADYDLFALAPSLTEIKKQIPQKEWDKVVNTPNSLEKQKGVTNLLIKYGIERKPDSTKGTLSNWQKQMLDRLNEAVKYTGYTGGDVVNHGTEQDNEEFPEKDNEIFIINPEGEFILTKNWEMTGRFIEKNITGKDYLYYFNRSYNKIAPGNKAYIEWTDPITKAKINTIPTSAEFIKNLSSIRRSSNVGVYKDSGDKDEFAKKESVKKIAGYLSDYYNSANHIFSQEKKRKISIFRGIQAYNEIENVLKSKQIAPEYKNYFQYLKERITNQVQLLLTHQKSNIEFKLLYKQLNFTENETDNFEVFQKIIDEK

[2] = Cytotoxic activity against human GenM-T01 cells after 24 hrs; format: cell-based; settings: genm-t01, 24 h
Salmonella typhimurium [3] = experiment: Mutagenicity in Salmonella typhimurium TA98 at 0.975 ug/mL to 1000 ug/mL after 48 hrs in absence of liver S9 fraction by Ames test; format: toxicity, organism-based; settings: salmonella enterica subsp. enterica serovar typhimurium
[4] = Cytotoxic activity against human GenM-T01 cells after 48 hrs; format: cell-based; settings: genm-t01, 48 h
[5] = Genotoxicity against human GenM-T01 cells assessed as induction of GFP expression after 24 hrs by GADD45alpha-GFP assay; format: toxicity, cell-based; settings: genm-t01, 24 h
[6] = Cytotoxic activity against human GenM-C01 cells after 48 hrs; format: cell-based; settings: genm-c01, 48 h
[7] = Genotoxicity against human GenM-T01 cells assessed as induction of GFP expression after 48 hrs by GADD45alpha-GFP assay; format: toxicity, cell-based; settings: genm-t01, 48 h
Salmonella typhimurium [8] = experiment: Mutagenicity in Salmonella typhimurium TAMix at 0.975 ug/mL to 1000 ug/mL after 48 hrs in absence of liver S9 fraction by Ames test; format: toxicity, organism-based; settings: salmonella enterica subsp. enterica serovar typhimurium
Salmonella typhimurium [9] = experiment: Mutagenicity in Salmonella typhimurium TA98 at 0.975 ug/mL to 1000 ug/mL after 48 hrs in presence of liver S9 fraction by Ames test; format: toxicity, organism-based; settings: salmonella enterica subsp. enterica serovar typhimurium, s9, 48 h
Salmonella typhimurium [10] = experiment: Mutagenicity in Salmonella typhimurium TAMix at 0.975 ug/mL to 1000 ug/mL after 48 hrs in presence of liver S9 fraction by Ames test; format: toxicity, organism-based; settings: salmonella enterica subsp. enterica serovar typhimurium, s9, 48 h

SMILES	IC50 [1] [µM]	further results
Nc1ccc(NC(=O)c2cccc3c2C(=O)c2ccccc2-3)cc1C(=O)O	6.08	
COC(=O)c1cccc(NC(=O)c2cccc(-c3ccccc3)c2)c1	19	
O=C(O)c1cccc(NC(=O)c2cccc3c2C(=O)c2ccccc2-3)c1Cl	9.21	
O=C(O)c1cccc(NC(=O)c2ccccc2)c1	> 100	
O=C(NO)c1cccc(NC(=O)c2cccc3c2C(=O)c2ccccc2-3)c1	12.9	
Nc1ccc(NC(=O)c2cccc3c2C(=O)c2ccccc2-3)c(C(=O)O)c1	80	
COC(=O)c1cccc(NC(=O)c2cccc3c2C(=O)c2ccccc2-3)c1	11	
O=C(O)c1cccc(NC(=O)c2cccc3c2C(=O)c2ccccc2-3)c1		MTC [2]: 62.5 µg/mL; Activity (Salmonella typhimurium [3]): Non-toxic; MTC [4]: 62.5 µg/mL; MTC [5]: 62.5 µg/mL; MTC [6]: 62.5 µg/mL; MTC [7]: 62.5 µg/mL; Activity (Salmonella typhimurium [8]): Non-toxic; Activity (Salmonella typhimurium [9]): Non-toxic; Activity (Salmonella typhimurium [10]): Non-toxic
COC(=O)c1cc(NC(=O)c2cccc3c2C(=O)c2ccccc2-3)ccc1O	> 100	
CSc1cccc(NC(=O)c2cccc3c2C(=O)c2ccccc2-3)c1	26	
O=C(Nc1cccc(OC(F)(F)F)c1)c1cccc2c1C(=O)c1ccccc1-2	6.8	
